Laboratory results as given in PubChem BioAssay (NCI).
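Exposure lasted 48 hours, with cells grown in 96-well plates and compounds tested at five concentrations. TGI: total growth inhibition.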

Legend:
Experiment in all cases: NCI-60 cell line screen, 48 h
M14 melanoma = system: M14 melanoma
COLO 205 colon = system: COLO 205 colon
XF 498 CNS = system: XF 498 CNS
SN12C renal = system: SN12C renal
IGROV1 ovarian = system: IGROV1 ovarian
HCC-2998 colon = system: HCC-2998 colon
SK-MEL-28 melanoma = system: SK-MEL-28 melanoma
DMS 273 small cell lung = system: DMS 273 small cell lung
NCI-H226 lung = system: NCI-H226 lung
HL-60(TB) leukemia = system: HL-60(TB) leukemia
SF-539 CNS = system: SF-539 CNS
A498 renal = system: A498 renal
OVCAR-4 ovarian = system: OVCAR-4 ovarian
SR leukemia = system: SR leukemia
SK-OV-3 ovarian = system: SK-OV-3 ovarian
MOLT-4 leukemia = system: MOLT-4 leukemia
HOP-92 NSCLC = system: HOP-92 NSCLC
M19-MEL melanoma = system: M19-MEL melanoma
DLD-1 colon = system: DLD-1 colon
LXFL 529 NSCLC = system: LXFL 529 NSCLC
UACC-62 melanoma = system: UACC-62 melanoma
SK-MEL-2 melanoma = system: SK-MEL-2 melanoma
RPMI-8226 leukemia = system: RPMI-8226 leukemia
NCI-H460 lung = system: NCI-H460 lung
K-562 leukemia = system: K-562 leukemia
SNB-75 CNS = system: SNB-75 CNS
CCRF-CEM leukemia = system: CCRF-CEM leukemia
SNB-78 CNS = system: SNB-78 CNS
SF-268 CNS = system: SF-268 CNS
HCT-116 colon = system: HCT-116 colon
786-0 renal = system: 786-0 renal
CAKI-1 renal = system: CAKI-1 renal
NCI-H23 lung = system: NCI-H23 lung
DMS 114 small cell lung = system: DMS 114 small cell lung
MALME-3M melanoma = system: MALME-3M melanoma
HOP-62 NSCLC = system: HOP-62 NSCLC
UO-31 renal = system: UO-31 renal
NCI-H522 lung = system: NCI-H522 lung
U251 CNS = system: U251 CNS
SW-620 colon = system: SW-620 colon
EKVX NSCLC = system: EKVX NSCLC
SF-295 CNS = system: SF-295 CNS
ACHN renal = system: ACHN renal
OVCAR-5 ovarian = system: OVCAR-5 ovarian
HT29 colon = system: HT29 colon
OVCAR-3 ovarian = system: OVCAR-3 ovarian
RXF-631 renal = system: RXF-631 renal
KM12 colon = system: KM12 colon
TK-10 renal = system: TK-10 renal
UACC-257 melanoma = system: UACC-257 melanoma
SK-MEL-5 melanoma = system: SK-MEL-5 melanoma
HCT-15 colon = system: HCT-15 colon
A549 NSCLC = system: A549 NSCLC
OVCAR-8 ovarian = system: OVCAR-8 ovarian
SNB-19 CNS = system: SNB-19 CNS
RXF 393 renal = system: RXF 393 renal
LOX IMVI melanoma = system: LOX IMVI melanoma
KM20L2 colon = system: KM20L2 colon
HOP-18 NSCLC = system: HOP-18 NSCLC

Molecule `Cc1ncc(CI)c(CI)c1O` has a TGI (M14 melanoma) greater than 100 µM, a TGI (COLO 205 colon) greater than 100 µM and a TGI (XF 498 CNS) of 38.4 µM. For the same molecule, the TGI (SN12C renal) was 35.2 µM, the TGI (IGROV1 ovarian) was greater than 100 µM and the TGI (HCC-2998 colon) was 33.3 µM. It also gave a TGI (SK-MEL-28 melanoma) of 44.6 µM, a TGI (DMS 273 small cell lung) of 32.1 µM and a TGI (NCI-H226 lung) of 6.1 µM. For the same molecule, the TGI (HL-60(TB) leukemia) was 5.29 µM, the TGI (SF-539 CNS) was 43.8 µM and the TGI (A498 renal) was greater than 100 µM. It also gave a TGI (OVCAR-4 ovarian) greater than 100 µM, a TGI (SR leukemia) of 36.7 µM and a TGI (SK-OV-3 ovarian) greater than 100 µM. It also gave a TGI (MOLT-4 leukemia) of 41.6 µM, a TGI (HOP-92 NSCLC) greater than 100 µM and a TGI (M19-MEL melanoma) greater than 100 µM. The TGI (DLD-1 colon) was 55.8 µM, the TGI (LXFL 529 NSCLC) was greater than 100 µM and the TGI (UACC-62 melanoma) was greater than 100 µM. It also gave a TGI (SK-MEL-2 melanoma) of 42.4 µM, a TGI (RPMI-8226 leukemia) of 31.4 µM and a TGI (NCI-H460 lung) greater than 100 µM. For the same molecule, the TGI (K-562 leukemia) was 31.5 µM, the TGI (SNB-75 CNS) was 41.2 µM and the TGI (CCRF-CEM leukemia) was 23.2 µM. It also gave a TGI (SNB-78 CNS) greater than 100 µM, a TGI (SF-268 CNS) of 54.7 µM and a TGI (HCT-116 colon) of 31.4 µM. The TGI (786-0 renal) was 35.3 µM, the TGI (CAKI-1 renal) was greater than 100 µM and the TGI (NCI-H23 lung) was 48.2 µM. For the same molecule, the TGI (DMS 114 small cell lung) was greater than 100 µM, the TGI (MALME-3M melanoma) was 42.5 µM and the TGI (HOP-62 NSCLC) was 35.3 µM. For the same molecule, the TGI (UO-31 renal) was 6.28 µM and the TGI (NCI-H522 lung) was 12.7 µM.
With `CNC(=O)CN(CC(=O)O)C(=O)NC` the TGI (U251 CNS) was greater than 100 µM, the TGI (M14 melanoma) was greater than 100 µM and the TGI (COLO 205 colon) was greater than 100 µM. The TGI (XF 498 CNS) was greater than 100 µM, the TGI (IGROV1 ovarian) was greater than 100 µM and the TGI (HCC-2998 colon) was greater than 100 µM. The TGI (SW-620 colon) was greater than 100 µM, the TGI (DMS 273 small cell lung) was greater than 100 µM and the TGI (HL-60(TB) leukemia) was greater than 100 µM. The TGI (SF-539 CNS) was greater than 100 µM, the TGI (A498 renal) was greater than 100 µM and the TGI (EKVX NSCLC) was greater than 100 µM. For the same molecule, the TGI (OVCAR-4 ovarian) was greater than 100 µM, the TGI (SF-295 CNS) was greater than 100 µM and the TGI (SR leukemia) was greater than 100 µM. The TGI (SK-OV-3 ovarian) was greater than 100 µM, the TGI (ACHN renal) was greater than 100 µM and the TGI (OVCAR-5 ovarian) was greater than 100 µM. It also gave a TGI (HT29 colon) greater than 100 µM, a TGI (OVCAR-3 ovarian) greater than 100 µM and a TGI (RXF-631 renal) greater than 100 µM. For the same molecule, the TGI (MOLT-4 leukemia) was greater than 100 µM, the TGI (HOP-92 NSCLC) was greater than 100 µM and the TGI (M19-MEL melanoma) was greater than 100 µM. The TGI (DLD-1 colon) was greater than 100 µM, the TGI (LXFL 529 NSCLC) was greater than 100 µM and the TGI (UACC-62 melanoma) was greater than 100 µM. The TGI (SK-MEL-2 melanoma) was greater than 100 µM, the TGI (KM12 colon) was greater than 100 µM and the TGI (RPMI-8226 leukemia) was greater than 100 µM. The TGI (TK-10 renal) was greater than 100 µM, the TGI (UACC-257 melanoma) was greater than 100 µM and the TGI (K-562 leukemia) was greater than 100 µM. It also gave a TGI (SNB-75 CNS) greater than 100 µM, a TGI (CCRF-CEM leukemia) greater than 100 µM and a TGI (SNB-78 CNS) greater than 100 µM. For the same molecule, the TGI (SF-268 CNS) was greater than 100 µM, the TGI (SK-MEL-5 melanoma) was greater than 100 µM and the TGI (HCT-15 colon) was greater than 100 µM. It also gave a TGI (A549 NSCLC) greater than 100 µM, a TGI (OVCAR-8 ovarian) greater than 100 µM and a TGI (786-0 renal) greater than 100 µM. It also gave a TGI (CAKI-1 renal) greater than 100 µM, a TGI (NCI-H23 lung) greater than 100 µM and a TGI (SNB-19 CNS) greater than 100 µM. It also gave a TGI (MALME-3M melanoma) greater than 100 µM, a TGI (HOP-62 NSCLC) greater than 100 µM and a TGI (RXF 393 renal) greater than 100 µM. The TGI (UO-31 renal) was greater than 100 µM, the TGI (NCI-H522 lung) was greater than 100 µM and the TGI (LOX IMVI melanoma) was greater than 100 µM.
`C[C@H]1C=C2C(=O)O[C@H]3CC[C@@H](C1)[C@@]23O` was tested, and the TGI (U251 CNS) was 19.5 µM, the TGI (M14 melanoma) was 14.7 µM and the TGI (COLO 205 colon) was 12.5 µM. For the same molecule, the TGI (SN12C renal) was 6.76 µM, the TGI (IGROV1 ovarian) was 19 µM and the TGI (HCC-2998 colon) was 26.8 µM. For the same molecule, the TGI (SW-620 colon) was 10.3 µM, the TGI (SK-MEL-28 melanoma) was 16.1 µM and the TGI (NCI-H226 lung) was 29.3 µM. The TGI (HL-60(TB) leukemia) was 4.55 µM, the TGI (SF-539 CNS) was 4.25 µM and the TGI (A498 renal) was 22.5 µM. The TGI (EKVX NSCLC) was 8.36 µM, the TGI (OVCAR-4 ovarian) was 24.4 µM and the TGI (SF-295 CNS) was 16.4 µM. It also gave a TGI (SR leukemia) greater than 100 µM, a TGI (SK-OV-3 ovarian) of 22.4 µM and a TGI (ACHN renal) of 17.2 µM. It also gave a TGI (OVCAR-5 ovarian) of 12.7 µM, a TGI (HT29 colon) of 16.9 µM and a TGI (OVCAR-3 ovarian) of 16.9 µM. The TGI (MOLT-4 leukemia) was greater than 100 µM, the TGI (HOP-92 NSCLC) was 16.3 µM and the TGI (M19-MEL melanoma) was 15.1 µM. The TGI (DLD-1 colon) was 10.7 µM, the TGI (LXFL 529 NSCLC) was 10.6 µM and the TGI (UACC-62 melanoma) was 13.2 µM. It also gave a TGI (SK-MEL-2 melanoma) of 10.1 µM, a TGI (KM12 colon) of 12.7 µM and a TGI (KM20L2 colon) of 16.2 µM. It also gave a TGI (RPMI-8226 leukemia) greater than 100 µM, a TGI (NCI-H460 lung) of 19.4 µM and a TGI (TK-10 renal) of 8 µM. For the same molecule, the TGI (HOP-18 NSCLC) was 13.4 µM, the TGI (UACC-257 melanoma) was 22.9 µM and the TGI (K-562 leukemia) was 8.26 µM. For the same molecule, the TGI (SNB-75 CNS) was 19.5 µM, the TGI (CCRF-CEM leukemia) was 6.05 µM and the TGI (SNB-78 CNS) was 9.94 µM. It also gave a TGI (SF-268 CNS) of 15.2 µM, a TGI (SK-MEL-5 melanoma) of 16.6 µM and a TGI (HCT-116 colon) of 9.24 µM. For the same molecule, the TGI (HCT-15 colon) was 14.6 µM, the TGI (A549 NSCLC) was 34.3 µM and the TGI (OVCAR-8 ovarian) was 13.8 µM. For the same molecule, the TGI (786-0 renal) was 12.2 µM, the TGI (CAKI-1 renal) was 14.8 µM and the TGI (NCI-H23 lung) was 9.53 µM. It also gave a TGI (DMS 114 small cell lung) of 8.69 µM, a TGI (SNB-19 CNS) of 30.6 µM and a TGI (MALME-3M melanoma) of 20 µM. The TGI (RXF 393 renal) was 9.02 µM, the TGI (UO-31 renal) was 32.1 µM and the TGI (NCI-H522 lung) was 8.15 µM. It also gave a TGI (LOX IMVI melanoma) of 10.3 µM.
